Test in all cases: Pre-emergent herbicidal activity
Type in all cases: in vivo
What all share (settings): Table III; 11.2 kg/h; 2 WAT

For assay [1], the system named is Barnyardgrass. The essentials:
(§1)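 Seeds or propagules covered with soil admixed with a known amount of compound, pans bottom-watered on wet sand bench. After approximately two weeks, emerged plants counted against untreated control; index reflects average percent control per species.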

Assay [2] concerns Canada Thistle. The method in brief: as §1
In assay [3] the test system is Cocklebur. The essentials: as §1
The test system of assay [4] is Downy Brome. The essentials:
as §1

Assay [5] concerns Johnsongrass. The essentials: as §1
Assay [6] concerns Lambsquarters. The essentials:
as §1

Assay [7] concerns Morningglory. The method in brief: as §1
In assay [8] the test system is Quackgrass. The essentials: as §1
The test system of assay [9] is Smartweed. The essentials: as §1
For assay [10], the system named is Velvetleaf. The method in brief:
as §1

Assay [11] deals with Yellow Nutsedge. The method in brief: as §1

Regarding `COC(=O)CN(CP(=O)(Oc1ccccc1)Oc1ccccc1)SSC(C)C` [I, Glycine, N-[(diphenoxyphosphinyl)methyl]-N-[(1-methylethyl)dithio]-, methyl ester], the “pre-emergent herbicidal activity index” value in [1] was 2 (50-74% control); in assay [2], 3 (75-100% control); in [3] it was 1 (25-49% control); in assay [4] it was 2 (50-74% control); in [5], 0 (0-24% control); in assay [6], 3 (75-100% control). For the same compound, the “pre-emergent herbicidal activity index” value is on record as 1 (25-49% control) in assay [7]; 3 (75-100% control) in assay [8]; 2 (50-74% control) in assay [9]; 0 (0-24% control) in [10]; 3 (75-100% control) in assay [11].
